The record followed here is article PMC6522930, “Design, synthesis and biological activity evaluation of a new class of 2,4-thiazolidinedione compounds as insulin enhancers” (Journal of Enzyme Inhibition and Medicinal Chemistry, 2019).

For orientation: EC50 means the concentration that produces a half-maximal response. The term pKa denotes the negative logarithm of the acid dissociation constant. The low end stands for a group that gives up its proton readily, the high end for a group that holds its proton tightly. By logP is commonly meant the decadic logarithm of the partition coefficient of the neutral form, usually between octanol and water.

One series deals with healthy mice. As to the kind of experiment: Oral glucose tolerance test. It is filed as in vivo. The note with it: 10 mg kg^−1 d^−1 oral for 10 d, 1 h after sugar load. Here is the method:
In vivo experiments, glucose tolerance test, insulin tolerance test, cell survival experiment and acute toxicity were used as the test indicators (Tables 2, [3] and [4]). In Table 2, we chose dose 10 mg kg^−1 d^−1 and used oral administration. […] The mice were given the drug for 10 d, blood was collected from the tail vein of the mice before and after the sugar load for 1 h and 2 h, and the blood glucose level of the mice before and after the sugar load was measured by the glucometer.
(§1) (1) Glucose tolerance test: The healthy mice (20 ± 2 g) were selected. After 1 week of acclimation, mice with no body surface damage, good general condition and flexible reaction were selected for the experiment. The test compounds were dissolved with DMSO, and were given a dose volume of 0.2 ml 10 g^−1, and a dose of 10 mg kg^−1, and given by gavage (oral) once a day. […] The mice were given the drug for 10 d, and after the last dose, the mice fasted for 12 h. The next day, blood was collected from the tail vein of the mice before and after the sugar load for 1 h and 2 h, and the blood glucose level of the mice before and after the sugar load was measured by the glucometer. […] The 12 h of fasting after the last administration, blood was taken from the orbital venous plexus (used to measure the blood glucose level after fasting). Each group was immediately given a subcutaneous injection of 0.2 μg kg^−1 of insulin. After 1 h and 2 h of injection, blood was taken again. (3) Cell survival experiment: The HUVEC cells were inoculated on the 96-well plate at the initial concentration of 3 × 10^3 cells/holes, and 100 μl RPMI 1640 medium were added to each hole. At 5% CO2 and 37 °C cell cultivation in 24 h, every pore solution in different concentrations. […] And determine the hole under 460 nm wavelength absorbance value (A).
For the compound `Cc1ccc(C(=O)NCCOc2ccc(CC3SC(=O)NC3=O)cc2)nc1` (stereo not drawn) [Compound 6g, N-(2-(4-((2,4-dioxothiazolidin-5-yl)methyl)phenoxy)ethyl)-5-methylpicolinamide], the “Blood glucose levels 1 h” value came to 6.445 ± 2.220 mmol/L.

The series is the same for the next values; noted with them: 10 mg kg^−1 d^−1 oral for 10 d, 2 h after sugar load.
Take `Cc1ccc(C(=O)NCCOc2ccc(CC3SC(=O)NC3=O)cc2)nc1` (stereo not drawn) [Compound 6g, N-(2-(4-((2,4-dioxothiazolidin-5-yl)methyl)phenoxy)ethyl)-5-methylpicolinamide]: the “Blood glucose levels 2 h” value is 3.677 ± 1.730 mmol/L.

The series is the same for the next values; noted with them: 10 mg kg^−1 d^−1 oral for 10 d, fasted 12 h, before sugar load.
`Cc1ccc(C(=O)NCCOc2ccc(CC3SC(=O)NC3=O)cc2)nc1` (stereo not drawn) [Compound 6g, N-(2-(4-((2,4-dioxothiazolidin-5-yl)methyl)phenoxy)ethyl)-5-methylpicolinamide]: the “Blood glucose levels 0 h” value was 3.112 ± 0.279 mmol/L.

Staying with this series, now noted: 10 mg kg^−1 d^−1 oral, 10 d.
Consider `Cc1ccc(C(=O)NCCOc2ccc(CC3SC(=O)NC3=O)cc2)nc1` (stereo not drawn) [Compound 6g, N-(2-(4-((2,4-dioxothiazolidin-5-yl)methyl)phenoxy)ethyl)-5-methylpicolinamide], for which the “Effect in glucose tolerance test (in words)” value is “good resistance activation to glucose”.

Test system in another series: not listed separately
In words: Acute toxicity test (LD50). The format is in vivo. Conditions: oral administration; n ≥ 3.
As to `Cc1ccc(C(=O)NCCOc2ccc(CC3SC(=O)NC3=O)cc2)nc1` (stereo not drawn) [Compound 6g, N-(2-(4-((2,4-dioxothiazolidin-5-yl)methyl)phenoxy)ethyl)-5-methylpicolinamide], the “LD50 ± SD” value was 2138.8 ± 1.36 mg/kg.

Another series has as its target T1, PPARγ (Homo sapiens, UniProt P37231).
T1 construct: expressed in transfected cells
T1 sequence (P37231 1-505): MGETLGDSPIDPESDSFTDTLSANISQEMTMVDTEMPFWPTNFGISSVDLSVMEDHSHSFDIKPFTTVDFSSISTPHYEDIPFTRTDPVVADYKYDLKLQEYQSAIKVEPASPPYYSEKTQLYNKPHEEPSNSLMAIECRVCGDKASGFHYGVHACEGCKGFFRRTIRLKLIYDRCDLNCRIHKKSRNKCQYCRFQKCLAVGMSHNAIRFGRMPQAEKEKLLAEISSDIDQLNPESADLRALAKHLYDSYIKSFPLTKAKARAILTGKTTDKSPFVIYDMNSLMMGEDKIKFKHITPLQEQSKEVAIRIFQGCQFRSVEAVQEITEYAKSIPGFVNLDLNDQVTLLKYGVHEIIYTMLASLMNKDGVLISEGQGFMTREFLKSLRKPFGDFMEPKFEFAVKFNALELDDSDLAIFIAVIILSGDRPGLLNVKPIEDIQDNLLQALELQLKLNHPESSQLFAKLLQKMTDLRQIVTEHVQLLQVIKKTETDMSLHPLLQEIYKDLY
As to the kind of experiment: In vitro activation of PPARγ (cells containing PPAR, EC50). It is filed as cell-based. The note with it: n ≥ 8; 24 h; read-out: EC50 ± SD PPARγ. Here is the method:
According to the literature, the cells containing PPAR (α, β and γ) were obtained and transfected into 96-well plates the day before for cells culture. Transfection was performed according to the instructions of human PPAR enzyme-linked immunoassay. […] After 24 h, the drugs were added, and 20 μl of MTT was added to each well for another 6 h, and the cell liquid was collected by removing the culture medium, and 150 μl of DMSO was added to each hole. And the absorbance value (A) of each hole was measured under the wavelength of 460 nm.
Take `Cc1ccc(C(=O)NCCOc2ccc(CC3SC(=O)NC3=O)cc2)nc1` (stereo not drawn) [Compound 6g, N-(2-(4-((2,4-dioxothiazolidin-5-yl)methyl)phenoxy)ethyl)-5-methylpicolinamide]: the EC50 worked out at 80 ± 30 nM.

Another series concerns healthy mice. In words: Insulin tolerance test (blood glucose under insulin load). The note with it: 10 mg kg^−1 d^−1. It is filed as in vivo. Here is the method:
as §1
For the compound `Cc1ccc(C(=O)NCCOc2ccc(CC3SC(=O)NC3=O)cc2)nc1` (stereo not drawn) [Compound 6g, N-(2-(4-((2,4-dioxothiazolidin-5-yl)methyl)phenoxy)ethyl)-5-methylpicolinamide], the “Effect in insulin tolerance test (in words)” value is listed as “good resistance activation to insulin”.

Still in this series, the particulars now being: 10 mg kg^−1 d^−1 for 15 d, 1 h after s.c. insulin 0.2 μg kg^−1.
Turning to `Cc1ccc(C(=O)NCCOc2ccc(CC3SC(=O)NC3=O)cc2)nc1` (stereo not drawn) [Compound 6g, N-(2-(4-((2,4-dioxothiazolidin-5-yl)methyl)phenoxy)ethyl)-5-methylpicolinamide], the “Blood glucose levels 1 h” value was found to be 1.843 ± 0.544 mmol/L.

Still in this series, the particulars now being: 10 mg kg^−1 d^−1 for 15 d, 2 h after s.c. insulin 0.2 μg kg^−1.
`Cc1ccc(C(=O)NCCOc2ccc(CC3SC(=O)NC3=O)cc2)nc1` (stereo not drawn) [Compound 6g, N-(2-(4-((2,4-dioxothiazolidin-5-yl)methyl)phenoxy)ethyl)-5-methylpicolinamide]: the “Blood glucose levels 2 h” value amounted to 2.566 ± 1.224 mmol/L.

Staying with this series, now noted: 10 mg kg^−1 d^−1 for 15 d, fasted 12 h, before insulin.
With `Cc1ccc(C(=O)NCCOc2ccc(CC3SC(=O)NC3=O)cc2)nc1` (stereo not drawn) [Compound 6g, N-(2-(4-((2,4-dioxothiazolidin-5-yl)methyl)phenoxy)ethyl)-5-methylpicolinamide], the “Blood glucose levels 0 h” value was 5.613 ± 1.246 mmol/L.

Another series has as its system HUVEC cells. In words: Cell survival experiment (cytotoxicity). The format is cell-based. Conditions: 10^−3–10^−2 mol L^−1. Here is the method:
as §1
On to `Cc1ccc(C(=O)NCCOc2ccc(CC3SC(=O)NC3=O)cc2)nc1` (stereo not drawn) [Compound 6g, N-(2-(4-((2,4-dioxothiazolidin-5-yl)methyl)phenoxy)ethyl)-5-methylpicolinamide], for which the “Cytotoxic effect (in words)” value is “no obvious cytotoxic effect”.

The series is the same for the next values; noted with them: HUVEC cells, 10^−2 mol l^−1.
Consider `Cc1ccc(C(=O)NCCOc2ccc(CC3SC(=O)NC3=O)cc2)nc1` (stereo not drawn) [Compound 6g, N-(2-(4-((2,4-dioxothiazolidin-5-yl)methyl)phenoxy)ethyl)-5-methylpicolinamide], for which the Cell survival rate amounted to 90.5 ± 1.54%.

The same series, now with this note: HUVEC cells, 10^−3 mol l^−1.
In the case of `Cc1ccc(C(=O)NCCOc2ccc(CC3SC(=O)NC3=O)cc2)nc1` (stereo not drawn) [Compound 6g, N-(2-(4-((2,4-dioxothiazolidin-5-yl)methyl)phenoxy)ethyl)-5-methylpicolinamide], the Cell survival rate was determined as 98.6 ± 0.44%.

The same series, now with this note: HUVEC cells, 10^−4 mol l^−1.
As for `Cc1ccc(C(=O)NCCOc2ccc(CC3SC(=O)NC3=O)cc2)nc1` (stereo not drawn) [Compound 6g, N-(2-(4-((2,4-dioxothiazolidin-5-yl)methyl)phenoxy)ethyl)-5-methylpicolinamide], the Cell survival rate is listed as 99.8 ± 0.09%.

Staying with this series, now noted: HUVEC cells, 10^−5 mol l^−1.
Take `Cc1ccc(C(=O)NCCOc2ccc(CC3SC(=O)NC3=O)cc2)nc1` (stereo not drawn) [Compound 6g, N-(2-(4-((2,4-dioxothiazolidin-5-yl)methyl)phenoxy)ethyl)-5-methylpicolinamide]: the Cell survival rate worked out at 100%.

Staying with this series, now noted: HUVEC cells, 10^−6 mol l^−1.
`Cc1ccc(C(=O)NCCOc2ccc(CC3SC(=O)NC3=O)cc2)nc1` (stereo not drawn) [Compound 6g, N-(2-(4-((2,4-dioxothiazolidin-5-yl)methyl)phenoxy)ethyl)-5-methylpicolinamide]: the Cell survival rate was determined as 100%.

Test system in another series: not listed separately
As to the kind of experiment: Dissociation degree (pKa). The format is physicochemical.
Settings: not given
From the text:
(§2) Drug in vitro experiment was one of the basic contents to evaluate drugs activity, and it was a necessary approach to research drugs. Drugs’ efficacy was often affected by some physical and chemical properties of compounds, such as lipid–water partition coefficient (log p), and dissociation degree (pKa). […] In Table 1, we could find that target compounds were fat-soluble. The fat-soluble compounds were favourable for drugs absorption, and drugs were easy to enter the cells. […] The pKa will affect the absorption and delivery of the drugs, different environmental (acid and alkalinity) medicine may be different, sometimes exists in the form of ions, sometimes exists in the form of molecules. Usually in the form of ion drugs has no effect. Therefore, it was necessary to study the dissociation degree (pKa) of drugs to study the pharmacodynamics. […] After the physical and chemical properties were studied, the biological activity was studied. […] After that, the target compounds 6a, 6e, 6f, 6g and 6i had good biological activity and were preliminarily screened out for further study on PPARγ receptor agonist activity (Figure 5).
In turn, `Cc1ccc(C(=O)NCCOc2ccc(CC3SC(=O)NC3=O)cc2)nc1` (stereo not drawn) [Compound 6g, N-(2-(4-((2,4-dioxothiazolidin-5-yl)methyl)phenoxy)ethyl)-5-methylpicolinamide] returned a pKa of 9.45.

Test system in another series: not listed separately
In words: Lipid–water partition coefficient (log p).
Settings: not given
The format is physicochemical.
Excerpt: as §2
`Cc1ccc(C(=O)NCCOc2ccc(CC3SC(=O)NC3=O)cc2)nc1` (stereo not drawn) [Compound 6g, N-(2-(4-((2,4-dioxothiazolidin-5-yl)methyl)phenoxy)ethyl)-5-methylpicolinamide] returned a logP of 2.83.
